Measured values reported in ChEMBL document CHEMBL1201862, “PubChem BioAssay data set” (2004).
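Step 1: Grow cells in 96-well plates. Step 2: Expose to compound for 48 hours at 5 concentrations. Step 3: Interpolate endpoints linearly; if unreached, use highest concentration. GI50 marks 50% less growth.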 Active and inactive are the calls of the source. Rule as the data show it: active = GI50 up to about 1.1 µM and inactive = higher.

Experiments:
Experiment in all cases: NCI-60 cell line screen, 48 h
786-0 = tested on: 786-0
BT-549 = tested on: BT-549
CCRF-CEM = tested on: CCRF-CEM
DU-145 = tested on: DU-145
EKVX = tested on: EKVX
HCT-15 = tested on: HCT-15
HL-60 = tested on: HL-60
HOP-62 = tested on: HOP-62
MDA-MB-231 = tested on: MDA-MB-231
MDA-N = tested on: MDA-N
Malme-3M = tested on: Malme-3M
NCI/ADR-RES = tested on: NCI/ADR-RES
OVCAR-8 = tested on: OVCAR-8
SF-295 = tested on: SF-295
SK-MEL-2 = tested on: SK-MEL-2
SNB-75 = tested on: SNB-75
T47D = tested on: T47D
HOP-92 = tested on: HOP-92
OVCAR-3 = tested on: OVCAR-3
RPMI-8226 = tested on: RPMI-8226

| Structure (SMILES) | GI50 (786-0) | GI50 (BT-549) | GI50 (CCRF-CEM) | GI50 (DU-145) | GI50 (EKVX) | GI50 (HCT-15) | GI50 (HL-60) | GI50 (HOP-62) | GI50 (MDA-MB-231) | GI50 (MDA-N) | GI50 (Malme-3M) | GI50 (NCI/ADR-RES) | GI50 (OVCAR-8) | GI50 (SF-295) | GI50 (SK-MEL-2) | GI50 (SNB-75) | GI50 (T47D) | GI50 (HOP-92) | GI50 (OVCAR-3) | GI50 (RPMI-8226) |
| --- | --- | --- | --- | --- | --- | --- | --- | --- | --- | --- | --- | --- | --- | --- | --- | --- | --- | --- | --- | --- |
| C=C(C)C1Cc2c(cc(OC)c3c(=O)c4cccc(O)c4oc23)O1 (stereo not drawn) | 18.9 µM (inactive) | 17.9 µM (inactive) | 74.6 µM (inactive) | 45.8 µM (inactive) | > 100 µM (inactive) | 47.6 µM | 39.9 µM (inactive) | 18.6 µM (inactive) | 23.9 µM (inactive) | 20 µM (inactive) | 25.2 µM (inactive) | 24.8 µM (inactive) | 21.6 µM (inactive) | 17.3 µM (inactive) | 18.6 µM (inactive) | 16.3 µM (inactive) | 16.6 µM (inactive) | – | – | – |
| Cc1c(Cc2ccccc2)n(COCCCO)c(=O)[nH]c1=O | > 100 µM (inactive) | > 100 µM (inactive) | > 100 µM (inactive) | > 100 µM (inactive) | > 100 µM (inactive) | > 100 µM | – | > 100 µM (inactive) | > 100 µM (inactive) | > 100 µM (inactive) | > 100 µM (inactive) | > 100 µM (inactive) | > 100 µM (inactive) | > 100 µM (inactive) | > 100 µM (inactive) | > 100 µM (inactive) | > 100 µM (inactive) | > 100 µM (inactive) | > 100 µM (inactive) | > 100 µM (inactive) |
| CCOc1ccccc1NC(=O)C(=O)C(/C(=N/N)C(=O)OC)c1nc2ccc([N+](=O)[O-])cc2nc1O (stereo not drawn) | > 100 µM (inactive) | > 100 µM (inactive) | > 100 µM (inactive) | – | 97.5 µM (inactive) | > 100 µM | > 100 µM (inactive) | > 100 µM (inactive) | > 100 µM (inactive) | > 100 µM (inactive) | > 100 µM (inactive) | > 100 µM (inactive) | > 100 µM (inactive) | > 100 µM (inactive) | > 100 µM (inactive) | 71.4 µM (inactive) | > 100 µM (inactive) | 46 µM (inactive) | > 100 µM (inactive) | > 100 µM (inactive) |
| CCOC(=O)c1ccc(-n2nnc(C(N)=O)c2O)cc1 | > 100 µM (inactive) | > 100 µM (inactive) | > 100 µM (inactive) | > 100 µM (inactive) | > 100 µM (inactive) | > 100 µM | – | > 100 µM (inactive) | > 100 µM (inactive) | > 100 µM (inactive) | > 100 µM (inactive) | > 100 µM (inactive) | > 100 µM (inactive) | > 100 µM (inactive) | > 100 µM (inactive) | > 100 µM (inactive) | > 100 µM (inactive) | – | > 100 µM (inactive) | > 100 µM (inactive) |
| CN(Cc1cnc2nc(N)nc(N)c2n1)c1ccc(C(=O)NCCCS(=O)(=O)O)cc1 | > 100 µM (inactive) | > 100 µM (inactive) | – | > 100 µM (inactive) | > 100 µM (inactive) | > 100 µM | – | > 100 µM (inactive) | > 100 µM (inactive) | > 100 µM (inactive) | > 100 µM (inactive) | > 100 µM (inactive) | > 100 µM (inactive) | > 100 µM (inactive) | > 100 µM (inactive) | > 100 µM (inactive) | > 100 µM (inactive) | 0.0264 µM (active) | > 100 µM (inactive) | > 100 µM (inactive) |
| CC(C)CC1c2[nH]c3ccccc3c2C[C@H]2C(=O)NC(COC(C)(C)C)C(=O)N12 (stereo partly drawn) | 32.8 µM (inactive) | 23.6 µM (inactive) | – | 34.5 µM (inactive) | 24.9 µM (inactive) | 26.9 µM | 26.4 µM (inactive) | 46.2 µM (inactive) | 18.7 µM (inactive) | 21.8 µM (inactive) | 19.6 µM (inactive) | 20.8 µM (inactive) | 33.1 µM (inactive) | 17.3 µM (inactive) | 19.9 µM (inactive) | – | 13.2 µM (inactive) | 31.8 µM (inactive) | 3.05 µM (inactive) | 23.9 µM (inactive) |
| CN1CCc2c([nH]c3ccccc23)C1 | > 100 µM (inactive) | > 100 µM (inactive) | > 100 µM (inactive) | > 100 µM (inactive) | > 100 µM (inactive) | > 100 µM | > 100 µM (inactive) | > 100 µM (inactive) | > 100 µM (inactive) | > 100 µM (inactive) | 29.4 µM (inactive) | > 100 µM (inactive) | > 100 µM (inactive) | > 100 µM (inactive) | > 100 µM (inactive) | 19.7 µM (inactive) | > 100 µM (inactive) | – | > 100 µM (inactive) | > 100 µM (inactive) |
